This is an account of results in patent US20260028354A1, “TETRAHYDRONAPHTHALENE DERIVATIVES AS ESTROGEN RECEPTOR DEGRADERS” (REGENT OF THE UNIVERSITY OF MICHIGAN, priority 2022, published 2026).

The nature of the assay: Western blot analysis for "B" compounds. It is filed as cell-based. The settings on record: read-out: Traditional Western Degradation Potency (DC50). The procedure, abridged:
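Target protein levels given as relative mean band intensity over GAPDH from scanned immunoblots. Lysates of treated cells in RIPA buffer, equalized by BCA, separated on 10% gels and transferred to PVDF.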
In general terms: A western blot detects proteins with antibodies after separation by electrophoresis.

A value given as a limit tells only on which side of the number the result lay.

In general, DC50 refers to the concentration at which degradation of the target reaches its halfway point. As to `O=C1CCC(N2C(=O)c3cc4c(cc3C2=O)CN(Cc2cnc(N3CC(Oc5ccc([C@@H]6c7ccc(O)cc7CC[C@@H]6c6ccccc6)cc5)C3)nc2)C4)C(=O)N1` (stereo partly drawn) [Compound B92, 2-(2,6-dioxopiperidin-3-yl)-6-((2-(3-(4-((1R,2S)-6-hydroxy-2-phenyl-1,2,3,4-tetrahydronaphthalen-1-yl)phenoxy)azetidin-1-yl)pyrimidin-5-yl)methyl)-6,7-dihydropyrrolo[3,4-f]isoindole-1,3(2H,5H)-dione], the DC50 was greater than 100 nM.
Take `O=C1CCC(N2C(=O)c3cc4c(cc3C2=O)CN(CC(=O)NC2CCN(c3ccc([C@@H]5c6ccc(O)cc6CC[C@@H]5c5ccccc5)cc3)CC2)C4)C(=O)N1` (stereo partly drawn) [Compound B93, 2-(6-(2,6-dioxopiperidin-3-yl)-5,7-dioxo-3,5,6,7-tetrahydropyrrolo[3,4-f]isoindol-2(1H)-yl)-N-(1-(4-((1R,2S)-6-hydroxy-2-phenyl-1,2,3,4-tetrahydronaphthalen-1-yl)phenyl)piperidin-4-yl)acetamide]: the DC50 is greater than 100 nM.
As to `O=C1CCC(N2C(=O)c3cc4c(cc3C2=O)CN(CCC(=O)NC2CCN(c3ccc([C@@H]5c6ccc(O)cc6CC[C@@H]5c5ccccc5)cc3)CC2)C4)C(=O)N1` (stereo partly drawn) [Compound B94, 3-(6-(2,6-dioxopiperidin-3-yl)-5,7-dioxo-3,5,6,7-tetrahydropyrrolo[3,4-f]isoindol-2(1H)-yl)-N-(1-(4-((1R,2S)-6-hydroxy-2-phenyl-1,2,3,4-tetrahydronaphthalen-1-yl)phenyl)piperidin-4-yl)propenamide], the DC50 is greater than 100 nM.
On to `CN(CC1CN(c2ccc([C@@H]3c4ccc(O)cc4CC[C@@H]3c3ccccc3)cc2)C1)C1CCC(N2Cc3cc4c(cc3C2)C(=O)N(C2CCC(=O)NC2=O)C4=O)CC1` (stereo partly drawn) [Compound B95, 2-(2,6-dioxopiperidin-3-yl)-6-(4-(((1-(4-((1R,2S)-6-hydroxy-2-phenyl-1,2,3,4-tetrahydronaphthalen-1-yl)phenyl)azetidin-3-yl)methyl)(methyl)amino)cyclohexyl)-6,7-dihydropyrrolo[3,4-f]isoindole-1,3(2H,5H)-dione], for which the DC50 was greater than 100 nM.
Under `O=C1CCC(N2C(=O)c3cc4c(cc3C2=O)CN([C@H]2CC[C@@H](NC3CCN(c5ccc([C@@H]6c7ccc(O)cc7CC[C@@H]6c6ccccc6)cc5)CC3)CC2)C4)C(=O)N1` (stereo partly drawn) [Compound B96, 2-(2,6-dioxopiperidin-3-yl)-6-((1S,4s)-4-((1-(4-((1R,2S)-6-hydroxy-2-phenyl-1,2,3,4-tetrahydronaphthalen-1-yl)phenyl)piperidin-4-yl)amino)cyclohexyl)-6,7-dihydropyrrolo[3,4-f]isoindole-1,3(2H,5H)-dione] stands greater than 100 nM.
Under `O=C1CCC(N2C(=O)c3cc4c(cc3C2=O)CN([C@H]2CC[C@H](NC3CCN(c5ccc([C@@H]6c7ccc(O)cc7CC[C@@H]6c6ccccc6)cc5)CC3)CC2)C4)C(=O)N1` (stereo partly drawn) [Compound B97, 2-(2,6-dioxopiperidin-3-yl)-6-((1R,4r)-4-((1-(4-((1R,2S)-6-hydroxy-2-phenyl-1,2,3,4-tetrahydronaphthalen-1-yl)phenyl)piperidin-4-yl)amino)cyclohexyl)-6,7-dihydropyrrolo[3,4-f]isoindole-1,3(2H,5H)-dione] stands greater than 100 nM; under `O=C1CCC(N2C(=O)c3cc4c(cc3C2=O)CN(C2CCC(C(=O)NC3CN(c5ccc([C@@H]6c7ccc(O)cc7CC[C@@H]6c6ccccc6)cc5)C3)CC2)C4)C(=O)N1` (stereo partly drawn) [Compound B98, 4-(6-(2,6-dioxopiperidin-3-yl)-5,7-dioxo-3,5,6,7-tetrahydropyrrolo[3,4-f]isoindol-2(1H)-yl)-N-(1-(4-((1R,2S)-6-hydroxy-2-phenyl-1,2,3,4-tetrahydronaphthalen-1-yl)phenyl)azetidin-3-yl)cyclohexane-1-carboxamide], greater than 100 nM; under `O=C1CCC(N2C(=O)c3cc4c(cc3C2=O)CN(CC2CCC(NC3CN(c5ccc([C@@H]6c7ccc(O)cc7CC[C@@H]6c6ccccc6)cc5)C3)CC2)C4)C(=O)N1` (stereo partly drawn) [Compound B99, 2-(2,6-dioxopiperidin-3-yl)-6-((4-((1-(4-((1R,2S)-6-hydroxy-2-phenyl-1,2,3,4-tetrahydronaphthalen-1-yl)phenyl)azetidin-3-yl)amino)cyclohexyl)methyl)-6,7-dihydropyrrolo[3,4-f]isoindole-1,3(2H,5H)-dione], greater than 100 nM.
Under `O=C1CCC(N2C(=O)c3cc4c(cc3C2=O)CN(C2CCC(CNC3CN(c5ccc([C@@H]6c7ccc(O)cc7CC[C@@H]6c6ccccc6)cc5)C3)CC2)C4)C(=O)N1` (stereo partly drawn) [Compound B100, 2-(2,6-dioxopiperidin-3-yl)-6-(4-(((1-(4-((1R,2S)-6-hydroxy-2-phenyl-1,2,3,4-tetrahydronaphthalen-1-yl)phenyl)azetidin-3-yl)amino)methyl)cyclohexyl)-6,7-dihydropyrrolo[3,4-f]isoindole-1,3(2H,5H)-dione] stands greater than 100 nM; under `O=C1CCC(N2C(=O)c3cc4c(cc3C2=O)CN(C2CCC(NCC3CN(c5ccc([C@@H]6c7ccc(O)cc7CC[C@@H]6c6ccccc6)cc5)C3)CC2)C4)C(=O)N1` (stereo partly drawn) [Compound B101, 2-(2,6-dioxopiperidin-3-yl)-6-(4-(((1-(4-((1R,2S)-6-hydroxy-2-phenyl-1,2,3,4-tetrahydronaphthalen-1-yl)phenyl)azetidin-3-yl)methyl)amino)cyclohexyl)-6,7-dihydropyrrolo[3,4-f]isoindole-1,3(2H,5H)-dione], greater than 100 nM; under `O=C1CCC(N2C(=O)c3cc4c(cc3C2=O)CN([C@H]2CC[C@@H](NC3CN(c5ccc([C@@H]6c7ccc(O)cc7CC[C@@H]6c6ccccc6)cc5)C3)CC2)C4)C(=O)N1` (stereo partly drawn) [Compound B102, 2-(2,6-dioxopiperidin-3-yl)-6-((1S,4s)-4-((1-(4-((1R,2S)-6-hydroxy-2-phenyl-1,2,3,4-tetrahydronaphthalen-1-yl)phenyl)azetidin-3-yl)amino)cyclohexyl)-6,7-dihydropyrrolo[3,4-f]isoindole-1,3(2H,5H)-dione], greater than 100 nM.
For the compound `O=C1CCC(N2C(=O)c3cc4c(cc3C2=O)CN([C@H]2CC[C@H](NC3CN(c5ccc([C@@H]6c7ccc(O)cc7CC[C@@H]6c6ccccc6)cc5)C3)CC2)C4)C(=O)N1` (stereo partly drawn) [Compound B103, 2-(2,6-dioxopiperidin-3-yl)-6-((1R,4r)-4-((1-(4-((1R,2S)-6-hydroxy-2-phenyl-1,2,3,4-tctrahydronaphthalen-1-yl)phenyl)azetidin-3-yl)amino)cyclohexyl)-6,7-dihydropyrrolo[3,4-f]isoindole-1,3(2H,5H)-dione], the DC50 was greater than 100 nM.
On to `O=C1CCC(N2C(=O)c3cc4c(cc3C2=O)CN(Cc2cnc(N3CC(Oc5ccc([C@@H]6c7ccc(O)cc7CC[C@@H]6c6ccccc6)cc5)C3)cn2)C4)C(=O)N1` (stereo partly drawn) [Compound B104, 2-(2,6-dioxopiperidin-3-yl)-6-((5-(3-(4-((1R,2S)-6-hydroxy-2-phenyl-1,2,3,4-tetrahydronaphthalen-1-yl)phenoxy)azetidin-1-yl)pyrazin-2-yl)methyl)-6,7-dihydropyrrolo[3,4-f]isoindole-1,3(2H,5H)-dione], for which the DC50 was greater than 100 nM.
Regarding `O=C1CCC(N2Cc3cc4c(cc3C2=O)CN(C(=O)CN2CCC3(CC2)CCN(c2ccc([C@@H]5c6ccc(O)cc6CC[C@@H]5c5ccccc5)cc2)CC3)C4)C(=O)N1` (stereo partly drawn) [Compound B105, 3-(6-(2-(9-(4-((1R,2S)-6-hydroxy-2-phenyl-1,2,3,4-tetrahydronaphthalen-1-yl)phenyl)-3,9-diazaspiro[5.5]undecan-3-yl)acetyl)-1-oxo-3,5,6,7-tetrahydropyrrolo[3,4-f]isoindol-2(1H)-yl)piperidine-2,6-dione], the DC50 was less than 10 nM.
Under `O=C1CCC(N2Cc3cc4c(cc3C2=O)CN(C(=O)C2CCC(N3CC(Oc5ccc([C@@H]6c7ccc(O)cc7CC[C@@H]6c6ccccc6)cc5)C3)CC2)C4)C(=O)N1` (stereo partly drawn) [Compound B106, 3-(6-((1R,4r)-4-(3-(4-((1R,2S)-6-hydroxy-2-phenyl-1,2,3,4-tetrahydronaphthalen-1-yl)phenoxy)azetidin-1-yl)cyclohexane-1-carbonyl)-1-oxo-3,5,6,7-tetrahydropyrrolo[3,4-f]isoindol-2(1H)-yl)piperidine-2,6-dione] stands less than 10 nM; under `O=C1CCC(N2Cc3cc4c(cc3C2=O)CN(C(=O)C2CCC(N3CC(Oc5ccc([C@@H]6c7ccc(O)cc7CC[C@@H]6c6ccccc6)cc5)C3)CC2)C4)C(=O)N1` (stereo partly drawn) [Compound B107, 3-(6-((1S,4s)-4-(3-(4-((1R,2S)-6-hydroxy-2-phenyl-1,2,3,4-tetrahydronaphthalen-1-yl)phenoxy)azetidin-1-yl)cyclohexane-1-carbonyl)-1-oxo-3,5,6,7-tetrahydropyrrolo[3,4-f]isoindol-2(1H)-yl)piperidine-2,6-dione], greater than 100 nM; under `O=C1CCC(N2Cc3cc4c(cc3C2=O)CN(C(=O)C2CCC(NC3CN(c5ccc([C@@H]6c7ccc(O)cc7CC[C@@H]6c6ccccc6)cc5)C3)CC2)C4)C(=O)N1` (stereo partly drawn) [Compound B108, 3-(6-(4-((1-(4-((1R,2S)-6-hydroxy-2-phenyl-1,2,3,4-tetrahydronaphthalen-1-yl)phenyl)azetidin-3-yl)amino)cyclohexane-1-carbonyl)-1-oxo-3,5,6,7-tetrahydropyrrolo[3,4-f]isoindol-2(1H)-yl)piperidine-2,6-dione], 10 to 100 nM.
Under `CN(C1CCN(c2ccc([C@@H]3c4ccc(O)cc4CC[C@@H]3c3ccccc3)cc2)CC1)C1CC(C(=O)N2Cc3cc4c(cc3C2)C(=O)N(C2CCC(=O)NC2=O)C4=O)C1` (stereo partly drawn) [Compound B111, 2-(2,6-dioxopiperidin-3-yl)-6-(3-((1-(4-((1R,2S)-6-hydroxy-2-phenyl-1,2,3,4-tetrahydronaphthalen-1-yl)phenyl)piperidin-4-yl)(methyl)amino)cyclobutane-1-carbonyl)-6,7-dihydropyrrolo[3,4-f]isoindole-1,3(2H,5H)-dione] stands greater than 100 nM.
